Experiments:
[1] = molecular target: T1, Gamma-aminobutyric acid receptor subunit alpha-1 (Homo sapiens, UniProt P14867)
T1 sequence (P14867 whole entry): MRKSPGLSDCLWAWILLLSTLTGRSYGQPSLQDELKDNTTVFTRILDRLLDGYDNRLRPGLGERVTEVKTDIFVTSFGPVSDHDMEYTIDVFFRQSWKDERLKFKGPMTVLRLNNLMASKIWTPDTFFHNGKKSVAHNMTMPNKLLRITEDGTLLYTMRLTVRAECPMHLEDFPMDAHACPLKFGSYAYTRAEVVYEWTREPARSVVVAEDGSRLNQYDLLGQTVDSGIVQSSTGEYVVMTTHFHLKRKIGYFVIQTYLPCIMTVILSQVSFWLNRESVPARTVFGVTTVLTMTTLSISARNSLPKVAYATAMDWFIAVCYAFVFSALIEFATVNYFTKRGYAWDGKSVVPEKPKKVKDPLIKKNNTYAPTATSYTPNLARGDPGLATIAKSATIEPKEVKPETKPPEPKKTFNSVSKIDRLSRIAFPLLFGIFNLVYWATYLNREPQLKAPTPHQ

[2] = molecular target: T2, 5-hydroxytryptamine receptor 3A (Rattus norvegicus, UniProt P35563)
T2 sequence (P35563 whole entry): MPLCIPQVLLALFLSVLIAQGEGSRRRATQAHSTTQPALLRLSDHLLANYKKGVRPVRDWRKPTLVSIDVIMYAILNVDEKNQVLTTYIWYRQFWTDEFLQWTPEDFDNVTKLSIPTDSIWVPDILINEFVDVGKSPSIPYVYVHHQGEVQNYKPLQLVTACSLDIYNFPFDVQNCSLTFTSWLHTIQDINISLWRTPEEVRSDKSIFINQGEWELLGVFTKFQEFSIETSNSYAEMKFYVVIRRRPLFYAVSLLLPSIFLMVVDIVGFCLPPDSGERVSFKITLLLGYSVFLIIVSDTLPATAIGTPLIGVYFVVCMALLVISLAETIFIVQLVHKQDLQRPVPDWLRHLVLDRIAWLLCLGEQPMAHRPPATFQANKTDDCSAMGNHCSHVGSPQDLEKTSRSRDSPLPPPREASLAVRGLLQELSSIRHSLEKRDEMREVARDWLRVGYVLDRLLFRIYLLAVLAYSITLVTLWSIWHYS

[3] = molecular target: D(1A) dopamine receptor (Homo sapiens, UniProt P21728)
[4] = molecular target: Beta-1 adrenergic receptor (Homo sapiens, UniProt P08588)
[5] = molecular target: T3, Adrenergic alpha2 receptor (Mesocricetus auratus, UniProt Q60533)
T3 sequence (Q60533 whole entry): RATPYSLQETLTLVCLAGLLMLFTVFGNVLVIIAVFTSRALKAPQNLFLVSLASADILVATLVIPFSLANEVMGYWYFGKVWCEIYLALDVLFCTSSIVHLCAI

[6] = molecular target: D(3) dopamine receptor (Homo sapiens, UniProt P35462)
[7] = molecular target: 5-hydroxytryptamine receptor 1D (Cavia porcellus, UniProt Q60484)
[8] = molecular target: T4, Solute carrier family 22 member 1 (Rattus norvegicus, UniProt Q63089)
T4 sequence (Q63089 whole entry): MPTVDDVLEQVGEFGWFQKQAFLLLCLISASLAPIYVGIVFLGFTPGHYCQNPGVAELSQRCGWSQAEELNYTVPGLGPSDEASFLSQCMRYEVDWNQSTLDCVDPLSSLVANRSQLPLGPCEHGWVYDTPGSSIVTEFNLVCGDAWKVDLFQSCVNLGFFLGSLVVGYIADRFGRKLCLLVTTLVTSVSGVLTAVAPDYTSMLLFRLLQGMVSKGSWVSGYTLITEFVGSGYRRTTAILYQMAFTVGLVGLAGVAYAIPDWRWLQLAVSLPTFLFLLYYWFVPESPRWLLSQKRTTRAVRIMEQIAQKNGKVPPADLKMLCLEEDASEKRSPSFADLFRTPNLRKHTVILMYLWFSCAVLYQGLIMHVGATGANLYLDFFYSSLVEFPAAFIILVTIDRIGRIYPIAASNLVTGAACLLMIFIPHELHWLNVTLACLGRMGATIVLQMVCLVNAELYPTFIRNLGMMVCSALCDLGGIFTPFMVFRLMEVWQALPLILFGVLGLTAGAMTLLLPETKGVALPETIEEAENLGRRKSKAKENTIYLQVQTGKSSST

[9] = molecular target: D(2) dopamine receptor (Homo sapiens, UniProt P14416)
[10] = molecular target: Beta-2 adrenergic receptor (Homo sapiens, UniProt P07550)
[11] = molecular target: 5-hydroxytryptamine receptor 2A (Homo sapiens, UniProt P28223)
[12] = molecular target: T5, 5-hydroxytryptamine receptor 2C (Sus scrofa, UniProt G7ZKZ7)
T5 sequence (G7ZKZ7 whole entry): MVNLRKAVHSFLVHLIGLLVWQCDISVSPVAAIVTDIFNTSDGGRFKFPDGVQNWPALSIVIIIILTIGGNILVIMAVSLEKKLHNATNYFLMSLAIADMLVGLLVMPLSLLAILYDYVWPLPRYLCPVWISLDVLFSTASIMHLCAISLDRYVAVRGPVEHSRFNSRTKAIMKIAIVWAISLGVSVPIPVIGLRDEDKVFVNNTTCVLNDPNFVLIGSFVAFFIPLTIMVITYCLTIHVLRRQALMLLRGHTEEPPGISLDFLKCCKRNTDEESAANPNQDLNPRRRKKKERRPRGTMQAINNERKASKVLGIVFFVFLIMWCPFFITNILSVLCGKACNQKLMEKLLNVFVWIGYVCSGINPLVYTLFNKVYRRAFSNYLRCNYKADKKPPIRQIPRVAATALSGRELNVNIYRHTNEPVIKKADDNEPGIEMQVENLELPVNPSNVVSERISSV

[13] = molecular target: Gamma-aminobutyric acid receptor subunit alpha-1 (Rattus norvegicus, UniProt P62813)
[14] = molecular target: 5-hydroxytryptamine receptor 1E (Homo sapiens, UniProt P28566)
[15] = molecular target: T6, Adenosine receptor A1 (Rattus norvegicus, UniProt P25099)
T6 sequence (P25099 whole entry): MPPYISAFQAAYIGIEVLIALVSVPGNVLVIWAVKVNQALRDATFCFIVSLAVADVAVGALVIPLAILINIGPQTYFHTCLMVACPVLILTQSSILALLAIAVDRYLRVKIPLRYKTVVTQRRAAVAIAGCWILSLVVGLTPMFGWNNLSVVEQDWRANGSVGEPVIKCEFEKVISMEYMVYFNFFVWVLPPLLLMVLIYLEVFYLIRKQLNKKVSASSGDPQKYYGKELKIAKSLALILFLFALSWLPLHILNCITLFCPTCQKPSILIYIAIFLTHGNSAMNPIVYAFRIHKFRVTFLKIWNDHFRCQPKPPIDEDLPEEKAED

Sequence of 5-hydroxytryptamine receptor 2A (P28223 whole entry): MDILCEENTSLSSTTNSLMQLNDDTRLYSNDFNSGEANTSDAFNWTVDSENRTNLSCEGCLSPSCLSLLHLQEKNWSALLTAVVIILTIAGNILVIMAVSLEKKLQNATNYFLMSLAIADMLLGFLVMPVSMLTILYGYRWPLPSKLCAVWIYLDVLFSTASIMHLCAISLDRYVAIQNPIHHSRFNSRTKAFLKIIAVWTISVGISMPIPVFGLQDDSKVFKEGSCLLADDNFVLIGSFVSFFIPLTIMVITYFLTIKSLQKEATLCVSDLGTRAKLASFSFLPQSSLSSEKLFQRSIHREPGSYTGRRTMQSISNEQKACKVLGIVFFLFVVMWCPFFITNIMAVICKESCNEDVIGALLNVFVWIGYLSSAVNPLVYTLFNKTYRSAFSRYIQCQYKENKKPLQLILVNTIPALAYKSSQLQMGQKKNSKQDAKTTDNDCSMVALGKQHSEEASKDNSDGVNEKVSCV
Sequence of D(1A) dopamine receptor (P21728 whole entry): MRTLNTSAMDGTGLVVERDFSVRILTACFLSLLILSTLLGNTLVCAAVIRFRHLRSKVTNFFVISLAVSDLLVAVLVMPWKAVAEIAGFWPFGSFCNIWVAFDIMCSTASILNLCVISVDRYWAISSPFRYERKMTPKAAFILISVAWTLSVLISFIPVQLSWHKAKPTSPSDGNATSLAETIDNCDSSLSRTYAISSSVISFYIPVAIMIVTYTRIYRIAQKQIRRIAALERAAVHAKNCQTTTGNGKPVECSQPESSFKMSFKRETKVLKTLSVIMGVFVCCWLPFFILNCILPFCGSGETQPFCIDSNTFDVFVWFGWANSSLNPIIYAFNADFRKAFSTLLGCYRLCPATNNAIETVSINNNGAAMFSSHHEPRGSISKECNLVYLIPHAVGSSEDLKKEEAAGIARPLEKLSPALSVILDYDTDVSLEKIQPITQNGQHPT
Sequence of D(3) dopamine receptor (P35462 as listed by the source): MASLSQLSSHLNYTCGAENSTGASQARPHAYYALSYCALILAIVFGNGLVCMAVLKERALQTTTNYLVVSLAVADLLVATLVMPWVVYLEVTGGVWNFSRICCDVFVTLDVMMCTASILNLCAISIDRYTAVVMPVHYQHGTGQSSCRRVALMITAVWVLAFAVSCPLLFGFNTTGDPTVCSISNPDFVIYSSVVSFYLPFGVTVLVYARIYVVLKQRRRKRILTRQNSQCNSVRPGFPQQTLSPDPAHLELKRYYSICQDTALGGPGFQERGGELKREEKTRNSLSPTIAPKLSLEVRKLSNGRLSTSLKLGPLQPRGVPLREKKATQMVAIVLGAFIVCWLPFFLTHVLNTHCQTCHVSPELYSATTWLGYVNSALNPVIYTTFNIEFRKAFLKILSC
Sequence of 5-hydroxytryptamine receptor 1D (Q60484 whole entry): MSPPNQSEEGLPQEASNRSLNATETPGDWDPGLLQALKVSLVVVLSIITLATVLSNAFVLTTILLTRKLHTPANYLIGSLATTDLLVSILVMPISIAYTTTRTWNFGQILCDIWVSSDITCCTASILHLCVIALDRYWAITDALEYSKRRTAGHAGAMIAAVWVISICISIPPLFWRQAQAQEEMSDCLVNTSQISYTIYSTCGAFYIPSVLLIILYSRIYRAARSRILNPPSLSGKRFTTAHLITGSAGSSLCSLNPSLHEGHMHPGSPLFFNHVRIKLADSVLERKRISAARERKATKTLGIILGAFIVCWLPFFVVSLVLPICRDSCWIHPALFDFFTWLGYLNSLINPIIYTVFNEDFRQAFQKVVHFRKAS
Sequence of Beta-1 adrenergic receptor (P08588 whole entry): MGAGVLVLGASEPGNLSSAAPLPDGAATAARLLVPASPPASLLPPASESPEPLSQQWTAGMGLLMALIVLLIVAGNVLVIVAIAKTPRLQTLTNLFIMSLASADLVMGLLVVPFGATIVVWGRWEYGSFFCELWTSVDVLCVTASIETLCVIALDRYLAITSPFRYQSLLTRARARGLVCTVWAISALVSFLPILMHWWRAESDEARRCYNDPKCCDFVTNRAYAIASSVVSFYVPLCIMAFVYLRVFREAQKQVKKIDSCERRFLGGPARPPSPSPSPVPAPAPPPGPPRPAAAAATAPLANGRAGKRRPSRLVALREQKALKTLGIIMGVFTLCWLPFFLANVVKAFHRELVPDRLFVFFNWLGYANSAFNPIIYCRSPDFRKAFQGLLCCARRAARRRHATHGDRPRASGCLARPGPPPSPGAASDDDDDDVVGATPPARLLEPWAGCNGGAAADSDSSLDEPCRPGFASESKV
Sequence of D(2) dopamine receptor (P14416 whole entry): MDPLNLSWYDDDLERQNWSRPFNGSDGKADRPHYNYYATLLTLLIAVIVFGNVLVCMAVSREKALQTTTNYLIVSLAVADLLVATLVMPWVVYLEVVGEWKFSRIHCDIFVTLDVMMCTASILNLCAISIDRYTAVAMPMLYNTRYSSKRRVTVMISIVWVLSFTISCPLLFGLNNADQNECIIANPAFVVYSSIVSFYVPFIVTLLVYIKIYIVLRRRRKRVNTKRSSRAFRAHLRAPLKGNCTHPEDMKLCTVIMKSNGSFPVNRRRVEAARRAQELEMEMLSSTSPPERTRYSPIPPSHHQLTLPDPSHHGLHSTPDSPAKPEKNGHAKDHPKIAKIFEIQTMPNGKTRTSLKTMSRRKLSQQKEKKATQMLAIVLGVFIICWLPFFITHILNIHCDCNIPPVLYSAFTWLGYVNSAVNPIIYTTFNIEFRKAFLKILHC
Sequence of Gamma-aminobutyric acid receptor subunit alpha-1 (Rattus norvegicus, UniProt P62813) (P62813 whole entry): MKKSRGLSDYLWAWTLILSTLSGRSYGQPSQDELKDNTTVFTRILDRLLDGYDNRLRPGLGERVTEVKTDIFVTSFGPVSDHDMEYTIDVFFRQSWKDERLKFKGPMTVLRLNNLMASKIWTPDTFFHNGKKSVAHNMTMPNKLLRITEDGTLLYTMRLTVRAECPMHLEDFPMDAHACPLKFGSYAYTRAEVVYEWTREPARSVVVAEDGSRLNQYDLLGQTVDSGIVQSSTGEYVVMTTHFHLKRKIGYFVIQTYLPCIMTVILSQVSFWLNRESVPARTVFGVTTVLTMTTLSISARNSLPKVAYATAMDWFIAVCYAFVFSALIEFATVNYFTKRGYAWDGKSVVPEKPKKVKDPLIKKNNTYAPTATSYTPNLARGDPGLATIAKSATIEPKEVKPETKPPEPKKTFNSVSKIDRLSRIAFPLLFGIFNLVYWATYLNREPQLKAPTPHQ
Sequence of 5-hydroxytryptamine receptor 1E (P28566 whole entry): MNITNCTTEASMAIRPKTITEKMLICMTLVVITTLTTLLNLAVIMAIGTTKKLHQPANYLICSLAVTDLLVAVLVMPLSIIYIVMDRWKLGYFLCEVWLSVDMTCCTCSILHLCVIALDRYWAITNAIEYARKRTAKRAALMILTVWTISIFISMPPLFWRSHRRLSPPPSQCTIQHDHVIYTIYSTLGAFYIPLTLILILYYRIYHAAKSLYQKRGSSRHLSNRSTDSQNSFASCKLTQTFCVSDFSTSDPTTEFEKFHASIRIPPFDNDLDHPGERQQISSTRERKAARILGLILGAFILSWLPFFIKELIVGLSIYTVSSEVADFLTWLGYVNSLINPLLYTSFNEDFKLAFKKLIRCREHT
Sequence of Beta-2 adrenergic receptor (P07550 whole entry): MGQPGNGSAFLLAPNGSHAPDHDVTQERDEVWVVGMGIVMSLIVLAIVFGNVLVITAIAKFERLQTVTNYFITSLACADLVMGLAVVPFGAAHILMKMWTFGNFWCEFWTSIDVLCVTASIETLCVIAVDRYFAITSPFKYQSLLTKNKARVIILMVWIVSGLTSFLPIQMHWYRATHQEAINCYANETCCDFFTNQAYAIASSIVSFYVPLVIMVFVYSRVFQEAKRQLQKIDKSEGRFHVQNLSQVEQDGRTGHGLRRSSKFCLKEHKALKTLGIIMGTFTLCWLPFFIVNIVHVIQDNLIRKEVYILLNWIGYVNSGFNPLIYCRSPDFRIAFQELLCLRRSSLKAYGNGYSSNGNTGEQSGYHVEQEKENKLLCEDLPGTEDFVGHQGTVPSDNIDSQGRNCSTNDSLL

Ki [1]: > 10000 nM
Ki [2]: 398 nM
Ki [3]: 1000 nM
Ki [4]: 1000 nM
Ki [5]: 1000 nM
Ki [6]: 1000 nM
Ki [7]: > 10000 nM
Ki [8]: 1000 nM
Ki [9]: > 10000 nM
Ki [10]: 1000 nM
Ki [11]: 1000 nM
Ki [12]: 126 nM
Ki [13]: > 10000 nM
Ki [14]: > 10000 nM
Ki [15]: > 10000 nM
SMILES: CCCCN1CCC(COC(=O)c2cc(Cl)c(N)c3c2OCCO3)CC1 [CAS_121881]
